Literature values as cited in patent US20230070788A1, “METHOD FOR DYEING KERATIN MATERIAL, COMPRISING THE USE OF AN ORGANIC C1-C6 ALKOXY SILANE AND A COPOLYMER OF (METH) ACRYLIC ACID AND MALEIC ACID (ANHYDRIDE)” (Henkel AG & Co. KGaA, priority 2019, published 2023).

Settings: for solubility in water: 25° C.

Molecule	solubility in water (in words) (water at 25° C.)	solubility in water
O=C([O-])C1=NN(c2ccc(S(=O)(=O)[O-])cc2)C(=O)C1N=Nc1ccc(S(=O)(=O)[O-])cc1.[Na+].[Na+].[Na+] (centres unmarked) [Acid Yellow 23, trisodium salt of 4,5-dihydro-5-oxo-1-(4-sulfophenyl)-4-((4-sulfophenyl)azo)-1H-pyrazole-3-carboxylic acid]	readily soluble	
O=C([O-])c1c(Cl)c(Cl)c(Cl)c(Cl)c1-c1c2c(Br)cc(=O)c(Br)c-2oc2c(Br)c(O)cc(Br)c12.O=C([O-])c1c(Cl)c(Cl)c(Cl)c(Cl)c1-c1c2c(Br)cc(=O)c(Br)c-2oc2c(Br)c(O)cc(Br)c12.[Na+].[Na+] [Acid Red 92, disodium salt of 3,4,5,6-tetrachloro-2-(1,4,5,8-tetrabromo-6-hydroxy-3-oxoxanthen-9-yl)benzoic acid]		greater than 10 g/L
Nc1cc(S(=O)(=O)[O-])cc2cc(S(=O)(=O)[O-])c(N=Nc3ccccc3)c(O)c12.[Na+].[Na+] [Acid Red 33, disodium salt of 5-amino-4-hydroxy-3-(phenylazo)-naphthalene-2,7-disulphonate]		2.5 mg/mL
O=S(=O)([O-])c1ccc(N=Nc2c(O)ccc3ccccc23)cc1.[Na+] [Acid Orange 7, sodium salt of 4-[(2-hydroxy-1-naphthyl)azo]benzenesulfonate]		more than 7 g/L
mixture of the sodium salts of mono- and disulfonic acids of 2-(2-quinolyl)-1H-indene-1,3(2H)-dione [Acid Yellow 3]		20 mg/mL
